# Results: article PMC10999543, “Identification of kinase modulators as host-directed therapeutics against intracellular methicillin-resistant Staphylococcus aureus” (Frontiers in Cellular and Infection Microbiology, 2024)
# Key:
# planktonic MRSA cultures = assay: Bacterial growth assay in cell-free planktonic MRSA cultures (OD600); type: cell-based, Staphylococcus aureus; details: for direct antibiotic effects against MRSA: planktonic cultures
# Description: […] The absorbance was measured using an EnVision plate reader (PerkinElmer). The plates were incubated at 37°C overnight and the absorbance was measured again the next day. Real-time measurement of bioluminescence by the MRSA-lux strain was performed in a white flat-bottom 96-wells plate using a SpectraMax i3x plate reader and an integration time set at 9000 ms.
# [1] = test system: intracellular MRSA in HeLa cells; assay: Gentamicin protection assay with CFU count in MRSA-infected HeLa cells; type: cell-based, Staphylococcus aureus; details: HeLa cells; for effect on intracellular MRSA burden: 991 used at 25 μM, rapamycin at 1 μM, Figure 5J
# Description: The cells were resuspended in cell culture medium without antibiotics, seeded with 10,000 cells/well into Costar flat-bottom 96-well plates (Corning, Amsterdam, the Netherlands), and were incubated overnight at 37°C/5% CO2. The next day, the bacteria were centrifuged at ≥1800 g for 15 min and resuspended in cold PBS + 5 mM ethylenediaminetetraacetic acid (EDTA). The number of CFUs present in the bacterial suspension was estimated from the optical density at 600 nm (OD600) by assuming 8x10^8 CFUs to be present in a bacterial suspension with OD600 = 1, based on prior titrations. The bacterial suspension was diluted in cell culture medium without antibiotics and added to the cells. Accuracy of the multiplicity of infection (MOI) was validated by plating serial dilutions of the MRSA inoculums on Difco TS agar plates (BD Biosciences). The calculated mean MOI throughout all experiments was 6.8 ± 4.6 (mean ± SD). Infected cells were centrifuged for 3 min at 150 g and incubated for 1 hour at 37°C/5% CO2. Next, the cells were incubated with fresh cell culture medium supplemented with 30 µg/ml gentamicin sulphate (Lonza BioWhittaker, Basel, Switzerland) for 15 min at 37°C/5% CO2 to kill residual extracellular bacteria. Infected cells were incubated overnight at 37°C/5% CO2 in cell culture medium in the presence of kinase inhibitors and 5 µg/ml gentamicin sulphate-containing medium to prevent the growth of extracellular bacteria. The solvent of the compounds, DMSO, was used at equal % v/v as a negative control. For the screen, each compound was tested in triplicate, on separate cell culture plates, resulting in triplicate values for each kinase inhibitor.
# Infected cells were lysed in sterile water + 0.05% UltraPure SDS solution (Invitrogen, ThermoFisher Scientific) to release intracellular bacteria. Bacterial suspensions and lysates of cells infected with MRSA were 5-fold serially diluted and 10-μl drops were plated on square TS agar plates. The plates were left to dry and incubated overnight at 37°C/5% CO2.
# HER4 = test system: HER4; set-up: method as in Drewry et al., 2017; details: PKIS2, KinomeScan, ref Drewry et al., 2017; cited from earlier work
# HER2 = test system: HER2; set-up: method as in Drewry et al., 2017; details: PKIS2, KinomeScan, ref Drewry et al., 2017; cited from earlier work
# EGFR = test system: EGFR; set-up: method as in Drewry et al., 2017; details: PKIS2, KinomeScan, ref Drewry et al., 2017; cited from earlier work
# HeLa cells = assay: Compound screen by flow cytometry: HeLa cell count as surrogate readout of cell viability (z-scoreHeLa); type: cell-based, human
# Procedure, shortened: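 HeLa cells were infected with GFP-MRSA (mean MOI 6.8 ± 4.6) for 1 h, and extracellular bacteria were killed with 30 µg/ml gentamicin. Cells were then incubated overnight with kinase inhibitors in 5 µg/ml gentamicin, in triplicate against DMSO controls. Flow-cytometric cell count served as a viability surrogate, expressed as a plate z-score.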
# intracellular MRSA = type: cell-based, Staphylococcus aureus
# Procedure, shortened: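 HeLa cells infected with GFP-MRSA (MOI ~6.8), gentamicin-cleared, then incubated overnight at 37°C with inhibitors plus 5 µg/ml gentamicin; DMSO as negative control, triplicates. Flow cytometry gave % GFP-positive cells and cell count (viability surrogate); hits by plate z-score (MRSA ≤ -2, HeLa count ≥ -3).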
# MRSA = details: especially against MRSA biofilm formation; ref Liu et al., 2022; cited from earlier work
structure (smiles),measurement,setting,value
"Cc1ccc(Oc2nc3cc(-c4ccc5c(ccn5C)c4)c(Cl)cc3[nH]2)cc1C(=O)O [Compound 991, reference compound]",direct antibiotic effects against MRSA,planktonic MRSA cultures; Supplementary Figure S5,shows direct antibiotic effects
same,effect on intracellular MRSA burden,[1],able to reduce the intracellular MRSA burden similar to GW296115X
CS(=O)(=O)CCNCc1nc(-c2ccc3ncnc(Nc4ccc(OCc5ccccc5)c(Cl)c4)c3c2)cs1 [GW582764],% inhibition at 1 µM HER4,HER4,97.8%
same,% inhibition at 1 µM HER2,HER2,100%
CS(=O)(=O)CCNCc1nc(-c2ccc3ncnc(Nc4ccc(OCc5cccc(F)c5)c(Cl)c4)c3c2)cs1 [GW583340],% inhibition at 1 µM HER4,HER4,99.1%
same,% inhibition at 1 µM HER2,HER2,99.7%
same,% inhibition at 1 µM EGFR,EGFR,99.9%
NC(=O)c1cccc(Nc2nccc(Nc3ccc(Oc4cccc(Cl)c4)c(Cl)c3)n2)c1 [GW659008A],inhibition at 10 µM,"planktonic MRSA cultures; Staphylococcus aureus, MRSA, read-out: inhibition of planktonic MRSA growth",67.3%
same,cell count rep 1,"HeLa cells; PKIS compound screen raw data, HeLa cell count, replicate 1",25296
same,cell count rep 2,"HeLa cells; PKIS compound screen raw data, HeLa cell count, replicate 2",38684
same,cell count rep 3,"HeLa cells; PKIS compound screen raw data, HeLa cell count, replicate 3",42387
same,z-scoreHeLa mean,"HeLa cells; PKIS compound screen, HeLa cell count, mean of 3 replicates",0.60
same,z-scoreHeLa rep 1,"HeLa cells; PKIS compound screen, HeLa cell count, replicate 1",0.78
same,z-scoreHeLa rep 2,"HeLa cells; PKIS compound screen, HeLa cell count, replicate 2",0.73
same,z-scoreHeLa rep 3,"HeLa cells; PKIS compound screen, HeLa cell count, replicate 3",0.30
same,cell death,"HeLa cells; PKIS compound screen, Yes/No call on z-scoreHeLa",No
same,%GFP+ rep 1,"intracellular MRSA; PKIS compound screen raw data, MRSA-infected HeLa cells, replicate 1",9.2%
same,%GFP+ rep 2,"intracellular MRSA; PKIS compound screen raw data, MRSA-infected HeLa cells, replicate 2",10.5%
same,%GFP+ rep 3,"intracellular MRSA; PKIS compound screen raw data, MRSA-infected HeLa cells, replicate 3",10.3%
same,z-scoreMRSA+ mean,"intracellular MRSA; PKIS compound screen, MRSA-infected HeLa cells, mean of 3 replicates",-2.69
same,z-scoreMRSA+ rep 1,"intracellular MRSA; PKIS compound screen, MRSA-infected HeLa cells, replicate 1",-2.76
same,z-scoreMRSA+ rep 2,"intracellular MRSA; PKIS compound screen, MRSA-infected HeLa cells, replicate 2",-2.41
same,z-scoreMRSA+ rep 3,"intracellular MRSA; PKIS compound screen, MRSA-infected HeLa cells, replicate 3",-2.89
same,hit,"intracellular MRSA; PKIS compound screen, Yes/No call (effect without cell death)",Yes
same,effect,"intracellular MRSA; PKIS compound screen, Yes/No call on z-scoreMRSA+",Yes
"CO/C1=C\C(C)=C\[C@@H](C)[C@@H](O)[C@@H](C)C/C(C)=C/C=C/[C@H](OC)[C@@H]([C@@H](C)[C@@H](O)[C@H](C)[C@@]2(O)C[C@@H](O)[C@H](C)[C@@H](C(C)C)O2)OC1=O [bafilomycin A1, reference compound]",direct antibiotic effects against MRSA,planktonic MRSA cultures; Supplementary Figure S5,not the case
same,reduction in the intracellular bacterial burden,[1]; bafilomycin A1 alone (used at 100 nM),70%
"CS(=O)(=O)CCNCc1ccc(-c2ccc3ncnc(Nc4ccc(OCc5cccc(F)c5)c(Cl)c4)c3c2)o1 [lapatinib, reference compound]",effect on planktonic MRSA growth (direct antibiotic effect),"planktonic MRSA cultures; up to 100 µM concentration, Supplementary Figure S5",did not observe this direct effect
same,concentrations resulting in direct antimicrobial effects,MRSA,above 10 µM
same,increase in the intracellular bacterial burden,[1]; 3 µM,80%
same,activity against intracellular MRSA,[1]; 10 and 30 µM,only modestly active
"CO[C@H]1C[C@@H]2CC[C@@H](C)[C@@](O)(O2)C(=O)C(=O)N2CCCC[C@H]2C(=O)O[C@H]([C@H](C)C[C@@H]2CC[C@@H](O)[C@H](OC)C2)CC(=O)[C@H](C)/C=C(\C)[C@@H](O)[C@@H](OC)C(=O)[C@H](C)C[C@H](C)/C=C/C=C/C=C/1C [rapamycin, reference compound]",direct antibiotic effects against MRSA,planktonic MRSA cultures; Supplementary Figure S5,not the case
same,effect on intracellular MRSA burden,[1],able to reduce the intracellular MRSA burden similar to GW296115X
